# Like-named read-outs stand apart in the source and are kept apart here.
# Legend:
# [1] = Nonclinical pharmacokinetics in rats; design: species or system rat; conditions: in vivo
# Method: A sandwich immunoassay was developed using an affinity purified goat polyclonal antibody, specific to h-SCP that was pre-coated onto a microplate with integrated electrodes. h-SCP molecules present in the sample will bind to the capture polyclonal antibody coated on the plate. After washing away any unbound substances, a sulfo-tagged mouse monoclonal anti-h-SCP antibody was added. This conjugated antibody will bind to the h-SCP molecules captured on the microplate and the quantity of analyte was determined by electrochemiluminescence. The amount of signal generated is directly proportional to the h-SCP concentration in the sample or standard. The standard curve range is 3.125-1600 pg/mL with a quantifiable range from 10-800 pg/mL. A sample volume of 25 μL (in duplicate) is required for this assay. This immunoassay is specific for human and dog stresscopin and human urocortin III (h-UCN3). […] After completion of the analysis, based on a comparison of reference standards between the ELISA and HPLC method, a correction factor of 1.57 was applied to all bioanalytical data.
# The nonclinical pharmacokinetics of h-SCP (SEQ ID NO:1) and pegylated stresscopin-like peptides were studied in rats, dogs, and cynomolgus monkeys (cyno). Nonclinical pharmacokinetic studies focused on characterization of IV infusion at pharmacologically relevant dose levels, supplemented with IV and SC bolus and toxicokinetic analysis.
# [2] = test system: anaesthetized mongrel dogs; assay: Hemodynamic, angiographic, echocardiographic profile in anaesthetized healthy dogs, IV bolus; format: in vivo, dog
# Method: The effects of h-SCP (SEQ ID NO: 1) on cardiovascular function were also assessed in anaesthetized mongrel dogs following intravenous bolus and 30-minute infusions. Hemodynamic and left ventricular systolic and diastolic function was evaluated using conventional hemodynamic, angiographic, echocardiographic, and radiographic methods with the results summarized in Table 16.
# [3] = test system: Langendorff perfused rabbit heart; assay: Retrograde-perfused Langendorff rabbit heart assay; conditions: bolus into the perfusion block
# Method: The effect of h-SCP (SEQ ID NO:1) on heart rate (HR), left ventricular (LV) contraction, and vascular tone was assessed in a retrograde-perfused Langendorff rabbit heart assay.
# [4] = Human pharmacokinetics, healthy subjects, 24- or 72-hour infusion of 54 ng/kg/min; conditions: in vivo; for Vd: Vss; for Tmax: median
# Method: In healthy subjects following a 24- or 72-hour infusion of 54 ng/kg/min of h-SCP (SEQ ID NO:1) noncompartmental pharmacokinetic analyses were performed on plasma concentrations of h-SCP (SEQ ID NO:1).
# [5] = female, rat IV infusion 3 hours, F, 83.3 ng/kg/min
# [6] = female, rat IV infusion 3 hours, F, 167 ng/kg/min
# [7] = female, rat IV infusion 3 hours, F, 333 ng/kg/min
# [8] = male, 3000 ng/kg, rat IV bolus, M, 3,000 ng/kg
# [9] = male, 10000 ng/kg, rat IV bolus, M, 10,000 ng/kg
# [10] = male, 300000 ng/kg, rat IV bolus, M, 300,000 ng/kg
# [11] = male, rat IV infusion 3 hours, M, 83.3 ng/kg/min
# [12] = male, rat IV infusion 3 hours, M, 167 ng/kg/min
# [13] = male, rat IV infusion 3 hours, M, 333 ng/kg/min
# [14] = male, 54 ng/kg, healthy subjects, 54 ng/kg/min, 24 Hours Male, mean, N = 7
# [15] = male, 54 ng/kg, healthy subjects, 54 ng/kg/min, 72 Hours Male, mean, N = 7
substance,measurement,setting,value
"H-TKFTLSLDVPTNIMNLLFNIAKAKNLRAQAAANAHLMAQI-NH2 [SEQ ID NO: 1, TKFTLSLDVPTNIMNLLFNIAKAKNLRAQAAANAHLMAQI-NH2]",AUC(0-inf),[1]; [5],1.47 ng·h/mL
same,Cmax,[1]; [5],0.906 ng/mL
same,clearance,"[1]; female, rat IV infusion 3 hours, F, 83.3 ng/kg/min, read-out: CL",107 mL/min/kg
same,AUC(0-inf),[1]; [6],1.15 ng·h/mL
same,Cmax,[1]; [6],0.683 ng/mL
same,clearance,"[1]; female, rat IV infusion 3 hours, F, 167 ng/kg/min, read-out: CL",271 mL/min/kg
same,AUC(0-inf),[1]; [7],4.45 ng·h/mL
same,Cmax,[1]; [7],2.67 ng/mL
same,clearance,"[1]; female, rat IV infusion 3 hours, F, 333 ng/kg/min, read-out: CL",130 mL/min/kg
same,half-life,"[1]; female, rat, iv, t1/2 alpha",0.0317 h
same,half-life,"[1]; female, rat, iv, t1/2 terminal",0.97 h
same,AUC(0-inf),[1]; [8],0.522 ng·h/mL
same,Cmax,[1]; [8],4.8 ng/mL
same,clearance,"[1]; male, 3000 ng/kg, rat IV bolus, M, 3,000 ng/kg, read-out: CL",109 mL/min/kg
same,AUC(0-inf),[1]; [9],1.5 ng·h/mL
same,Cmax,[1]; [9],13.6 ng/mL
same,clearance,"[1]; male, 10000 ng/kg, rat IV bolus, M, 10,000 ng/kg, read-out: CL",116 mL/min/kg
same,Cmax,"[1]; male, 50000 ng/kg, rat IV bolus, M, 50,000 ng/kg",224 ng/mL
same,clearance,"[1]; male, 50000 ng/kg, rat IV bolus, M, 50,000 ng/kg, read-out: CL",41.8 mL/min/kg
same,AUC(0-inf),[1]; [10],99.7 ng·h/mL
same,Cmax,[1]; [10],780 ng/mL
same,clearance,"[1]; male, 300000 ng/kg, rat IV bolus, M, 300,000 ng/kg, read-out: CL",50.1 mL/min/kg
same,AUC(0-inf),[1]; [11],1.24 ng·h/mL
same,Cmax,[1]; [11],0.752 ng/mL
same,clearance,"[1]; male, rat IV infusion 3 hours, M, 83.3 ng/kg/min, read-out: CL",116 mL/min/kg
same,AUC(0-inf),[1]; [12],2.43 ng·h/mL
same,Cmax,[1]; [12],1.53 ng/mL
same,clearance,"[1]; male, rat IV infusion 3 hours, M, 167 ng/kg/min, read-out: CL",109 mL/min/kg
same,AUC(0-inf),[1]; [13],4.85 ng·h/mL
same,Cmax,[1]; [13],2.86 ng/mL
same,clearance,"[1]; male, rat IV infusion 3 hours, M, 333 ng/kg/min, read-out: CL",118 mL/min/kg
same,half-life,"[1]; rat, alpha-phase half-life (t1/2 alpha)",< 0.0833 h
same,time to apparent steady-state plasma concentration after initiation of infusion,"[1]; rat, iv",≤ 2 h
same,clearance,"[1]; rat, rats, IV bolus, read-out: clearance values",42 to 116 mL/min/kg
same,CO (Cardiac output),[2]; IV bolus 0.13 μg/kg,2.19 L/min
same,HR (Heart rate),[2]; IV bolus 0.13 μg/kg,73 beats/min
same,LV dP/dt (LV contractility),[2]; IV bolus 0.13 μg/kg,1546 mmHg/sec
same,LVEDA (LV end diastolic area),[2]; IV bolus 0.13 μg/kg,12.9 cm^2
same,LVEDV (LV end diastolic volume),[2]; IV bolus 0.13 μg/kg,55 mL
same,LVEF (LV ejection fraction),[2]; IV bolus 0.13 μg/kg,55%
same,LVESA (LV end systolic area),[2]; IV bolus 0.13 μg/kg,6.9 cm^2
same,LVESV (LV end systolic volume),[2]; IV bolus 0.13 μg/kg,25 mL
same,LVFAS (LV fractional area of shortening),[2]; IV bolus 0.13 μg/kg,46%
same,PSAP (Peak systolic aortic pressure),[2]; IV bolus 0.13 μg/kg,92 mmHg
same,SV (Stroke volume),[2]; IV bolus 0.13 μg/kg,30 mL
same,increase in heart rate (largest change),[2]; IV bolus 0.13 μg/kg to 13.1 μg/kg,45%
same,CO (Cardiac output),[2]; IV bolus 1.3 μg/kg,2.56 L/min
same,HR (Heart rate),[2]; IV bolus 1.3 μg/kg,85 beats/min
same,LV dP/dt (LV contractility),[2]; IV bolus 1.3 μg/kg,1606 mmHg/sec
same,LVEDA (LV end diastolic area),[2]; IV bolus 1.3 μg/kg,12.7 cm^2
same,LVEDV (LV end diastolic volume),[2]; IV bolus 1.3 μg/kg,54 mL
same,LVEF (LV ejection fraction),[2]; IV bolus 1.3 μg/kg,57%
same,LVESA (LV end systolic area),[2]; IV bolus 1.3 μg/kg,6.5 cm^2
same,LVESV (LV end systolic volume),[2]; IV bolus 1.3 μg/kg,23 mL
same,LVFAS (LV fractional area of shortening),[2]; IV bolus 1.3 μg/kg,49%
same,PSAP (Peak systolic aortic pressure),[2]; IV bolus 1.3 μg/kg,91 mmHg
same,SV (Stroke volume),[2]; IV bolus 1.3 μg/kg,30 mL
same,CO (Cardiac output),[2]; IV bolus 2.6 μg/kg,2.72 L/min
same,HR (Heart rate),[2]; IV bolus 2.6 μg/kg,92 beats/min
same,LV dP/dt (LV contractility),[2]; IV bolus 2.6 μg/kg,1675 mmHg/sec
same,LVEDA (LV end diastolic area),[2]; IV bolus 2.6 μg/kg,12.5 cm^2
same,LVEDV (LV end diastolic volume),[2]; IV bolus 2.6 μg/kg,52 mL
same,LVEF (LV ejection fraction),[2]; IV bolus 2.6 μg/kg,57%
same,LVESA (LV end systolic area),[2]; IV bolus 2.6 μg/kg,6.2 cm^2
same,LVESV (LV end systolic volume),[2]; IV bolus 2.6 μg/kg,22 mL
same,LVFAS (LV fractional area of shortening),[2]; IV bolus 2.6 μg/kg,50%
same,PSAP (Peak systolic aortic pressure),[2]; IV bolus 2.6 μg/kg,90 mmHg
same,SV (Stroke volume),[2]; IV bolus 2.6 μg/kg,30 mL
same,CO (Cardiac output),[2]; IV bolus 4.4 μg/kg,2.80 L/min
same,HR (Heart rate),[2]; IV bolus 4.4 μg/kg,94 beats/min
same,LV dP/dt (LV contractility),[2]; IV bolus 4.4 μg/kg,1682 mmHg/sec
same,LVEDA (LV end diastolic area),[2]; IV bolus 4.4 μg/kg,12.4 cm^2
same,LVEDV (LV end diastolic volume),[2]; IV bolus 4.4 μg/kg,51 mL
same,LVEF (LV ejection fraction),[2]; IV bolus 4.4 μg/kg,58%
same,LVESA (LV end systolic area),[2]; IV bolus 4.4 μg/kg,6.0 cm^2
same,LVESV (LV end systolic volume),[2]; IV bolus 4.4 μg/kg,22 mL
same,LVFAS (LV fractional area of shortening),[2]; IV bolus 4.4 μg/kg,52%
same,PSAP (Peak systolic aortic pressure),[2]; IV bolus 4.4 μg/kg,90 mmHg
same,SV (Stroke volume),[2]; IV bolus 4.4 μg/kg,30 mL
same,CO (Cardiac output),[2]; IV bolus 13.1 μg/kg,2.86 L/min
same,HR (Heart rate),[2]; IV bolus 13.1 μg/kg,107 beats/min
same,LV dP/dt (LV contractility),[2]; IV bolus 13.1 μg/kg,1760 mmHg/sec
same,LVEDA (LV end diastolic area),[2]; IV bolus 13.1 μg/kg,11.4 cm^2
same,LVEDV (LV end diastolic volume),[2]; IV bolus 13.1 μg/kg,46 mL
same,LVEF (LV ejection fraction),[2]; IV bolus 13.1 μg/kg,60%
same,LVESA (LV end systolic area),[2]; IV bolus 13.1 μg/kg,5.2 cm^2
same,LVESV (LV end systolic volume),[2]; IV bolus 13.1 μg/kg,18 mL
same,LVFAS (LV fractional area of shortening),[2]; IV bolus 13.1 μg/kg,53%
same,PSAP (Peak systolic aortic pressure),[2]; IV bolus 13.1 μg/kg,88 mmHg
same,SV (Stroke volume),[2]; IV bolus 13.1 μg/kg,28 mL
same,EC50,"[3]; read-out: concentration for 50% response, decrease in coronary perfusion pressure (CPP)",46 nM
same,EC50,"[3]; read-out: concentration for 50% response, increase in heart rate",52 nM
same,EC50,"[3]; read-out: concentration for 50% response, increase in left ventricular developed pressure (dP/dtmax)",9.9 nM
same,half-life,"[4]; female, 54 ng/kg, T1/2",23.4 h
same,half-life,"[4]; female, 54 ng/kg, T1/2, effective",5.84 h
same,Vd,"[4]; female, 54 ng/kg",2.72 L/kg
same,AUC(0-inf),"[4]; female, 54 ng/kg, healthy subjects, 54 ng/kg/min, 72 Hours Female, mean, N = 5",740 ng·h/mL
same,Cmax,"[4]; female, 54 ng/kg, healthy subjects, 54 ng/kg/min, 72 Hours Female, mean, N = 6",11.5 ng/mL
same,clearance,"[4]; female, 54 ng/kg, healthy subjects, 54 ng/kg/min, 72 Hours Female, mean, N = 6, read-out: CL (converted)",5.5 mL/min/kg
same,Tmax,"[4]; female, 54 ng/kg, healthy subjects, 54 ng/kg/min, 72 Hours Female, N = 6",18 h
same,half-life,"[4]; 54 ng/kg/min, healthy subjects, 24- or 72-hour infusion of 54 ng/kg/min, read-out: Mean terminal half-life",23.4 to 28.8 h
same,half-life,"[4]; 54 ng/kg/min, healthy subjects, 24- or 72-hour infusion of 54 ng/kg/min, read-out: effective half-life",5.84 to 9.62 h
same,clearance,"[4]; 54 ng/kg/min, healthy subjects, 24- or 72-hour infusion of 54 ng/kg/min, read-out: mean clearance",4.67 to 6.33 mL/min/kg
same,T1/2,"[4]; male, 54 ng/kg",28.81 h
same,"T1/2, effective","[4]; male, 54 ng/kg",9.62 h
same,Vss,"[4]; male, 54 ng/kg",4.94 L/kg
same,half-life,"[4]; male, 54 ng/kg, T1/2",25.7 h
same,half-life,"[4]; male, 54 ng/kg, T1/2, effective",9.37 h
same,Vd,"[4]; male, 54 ng/kg",3.7 L/kg
same,AUC(0-inf),[4]; [14],283 ng·h/mL
same,Cmax,[4]; [14],12.2 ng/mL
same,clearance,"[4]; male, 54 ng/kg, healthy subjects, 54 ng/kg/min, 24 Hours Male, mean, N = 7, read-out: CL (converted)",4.67 mL/min/kg
same,Tmax,"[4]; male, 54 ng/kg, healthy subjects, 54 ng/kg/min, 24 Hours Male, N = 7",16 h
same,AUC(0-inf),[4]; [15],632 ng·h/mL
same,Cmax,[4]; [15],10.2 ng/mL
same,clearance,"[4]; male, 54 ng/kg, healthy subjects, 54 ng/kg/min, 72 Hours Male, mean, N = 7, read-out: CL (converted)",6.33 mL/min/kg
same,Tmax,"[4]; male, 54 ng/kg, healthy subjects, 54 ng/kg/min, 72 Hours Male, N = 7",24 h
